Test results from ChEMBL document CHEMBL3885881, “DrugMatrix”.

Organism: Rattus norvegicus
Experiment: DrugMatrix - Regimen: Daily Repeat
Assay type: toxicity, organism-based, Sprague-Dawley
Design: regimen Daily Repeat, gender Male, age 6-8 weeks
Settings: in vivo, po, route oral GAVAGE, vehicle .5 % CMC; for ABSOLUTE BASOPHIL / ABSOLUTE EOSINOPHIL / ABSOLUTE LYMPHOCYTE / ABSOLUTE MONOCYTE / ABSOLUTE SEGMENTED NEUTROPHIL / BASOPHIL / EOSINOPHIL / ERYTHROCYTE COUNT / HEMATOCRIT / HEMOGLOBIN / LEUKOCYTE COUNT / LYMPHOCYTE / MEAN CORPUSCULAR HEMOGLOBIN / MEAN CORPUSCULAR HEMOGLOBIN CONCENTRATION / MEAN CORPUSCULAR VOLUME / MONOCYTE / NEUTROPHIL / NUCLEATED RED BLOOD CELLS / PLATELET COUNT: tissue Blood; for ALANINE AMINOTRANSFERASE / ALBUMIN / ALKALINE PHOSPHATASE / ASPARTATE AMINOTRANSFERASE / BLOOD UREA NITROGEN / CARBON DIOXIDE / CHLORIDE / CHOLESTEROL / CREATINE PHOSPHOKINASE / CREATININE / GLUCOSE / LACTATE DEHYDROGENASE / LIPASE / PHOSPHORUS / POTASSIUM / SODIUM / TOTAL BILIRUBIN / TOTAL PROTEIN / URIC ACID: tissue Plasma
[1] = 0 mg/kg, 72 h, dose level Control, time 3 day
[2] = 0 mg/kg, 120 h, dose level Control, time 5 day
[3] = 3 mg/kg, 72 h, dose level Low, time 3 day

Structure (SMILES): CC(=O)Nc1ccc2c(c1)Cc1ccccc1-2 [2-ACETYLAMINOFLUORENE]
- ABSOLUTE BASOPHIL [1]: 0 CELLS/uL
- ABSOLUTE EOSINOPHIL [1]: 171.33 CELLS/uL
- ABSOLUTE LYMPHOCYTE [1]: 13776.5 CELLS/uL
- ABSOLUTE MONOCYTE [1]: 180.83 CELLS/uL
- ABSOLUTE SEGMENTED NEUTROPHIL [1]: 1121.33 CELLS/uL
- BASOPHIL [1]: 0%
- EOSINOPHIL [1]: 1%
- ERYTHROCYTE COUNT [1]: 5.56 x10E6/uL
- HEMATOCRIT [1]: 34.75%
- HEMOGLOBIN [1]: 13.68 G/DL
- LEUKOCYTE COUNT [1]: 15.25 x10E3/uL
- LYMPHOCYTE [1]: 90.17%
- MEAN CORPUSCULAR HEMOGLOBIN [1]: 24.6 pg
- MEAN CORPUSCULAR HEMOGLOBIN CONCENTRATION [1]: 39.4 G/DL
- MEAN CORPUSCULAR VOLUME [1]: 62.48 fL
- MONOCYTE [1]: 1.17%
- NEUTROPHIL [1]: 7.67%
- NUCLEATED RED BLOOD CELLS [1]: 0 /100WBC
- PLATELET COUNT [1]: 1342 x10E3/uL
- ALANINE AMINOTRANSFERASE [1]: 49.67 u/L
- ALBUMIN [1]: 4.15 G/DL
- ALKALINE PHOSPHATASE [1]: 346.83 u/L
- ASPARTATE AMINOTRANSFERASE [1]: 108.17 u/L
- BLOOD UREA NITROGEN [1]: 17.33 mg/dL
- CARBON DIOXIDE [1]: 25 mmol/L
- CHLORIDE [1]: 100.83 MEQ/L
- CHOLESTEROL [1]: 66.83 mg/dL
- CREATINE PHOSPHOKINASE [1]: 788 u/L
- CREATININE [1]: 0.18 mg/dL
- GLUCOSE [1]: 151.67 mg/dL
- LACTATE DEHYDROGENASE [1]: 982.5 u/L
- LIPASE [1]: 10.33 u/L
- PHOSPHORUS [1]: 11.23 mg/dL
- POTASSIUM [1]: 6.37 MEQ/L
- SODIUM [1]: 141.02 MEQ/L
- TOTAL BILIRUBIN [1]: 0.18 mg/dL
- TOTAL PROTEIN [1]: 5.9 G/DL
- URIC ACID [1]: 1.8 mg/dL
- ABSOLUTE BASOPHIL [2]: 0 CELLS/uL
- ABSOLUTE EOSINOPHIL [2]: 69 CELLS/uL
- ABSOLUTE LYMPHOCYTE [2]: 13632.83 CELLS/uL
- ABSOLUTE MONOCYTE [2]: 139.83 CELLS/uL
- ABSOLUTE SEGMENTED NEUTROPHIL [2]: 1225 CELLS/uL
- BASOPHIL [2]: 0%
- EOSINOPHIL [2]: 0.33%
- ERYTHROCYTE COUNT [2]: 5.52 x10E6/uL
- HEMATOCRIT [2]: 33.98%
- HEMOGLOBIN [2]: 13.22 G/DL
- LEUKOCYTE COUNT [2]: 15.07 x10E3/uL
- LYMPHOCYTE [2]: 90.83%
- MEAN CORPUSCULAR HEMOGLOBIN [2]: 23.95 pg
- MEAN CORPUSCULAR HEMOGLOBIN CONCENTRATION [2]: 38.9 G/DL
- MEAN CORPUSCULAR VOLUME [2]: 61.53 fL
- MONOCYTE [2]: 0.83%
- NEUTROPHIL [2]: 8%
- NUCLEATED RED BLOOD CELLS [2]: 0 /100WBC
- PLATELET COUNT [2]: 1196 x10E3/uL
- ALANINE AMINOTRANSFERASE [2]: 49.17 u/L
- ALBUMIN [2]: 4.2 G/DL
- ALKALINE PHOSPHATASE [2]: 352.33 u/L
- ASPARTATE AMINOTRANSFERASE [2]: 89.67 u/L
- BLOOD UREA NITROGEN [2]: 18 mg/dL
- CARBON DIOXIDE [2]: 27.67 mmol/L
- CHLORIDE [2]: 101 MEQ/L
- CHOLESTEROL [2]: 72.83 mg/dL
- CREATINE PHOSPHOKINASE [2]: 417.5 u/L
- CREATININE [2]: 0.18 mg/dL
- GLUCOSE [2]: 150.5 mg/dL
- LACTATE DEHYDROGENASE [2]: 517.33 u/L
- LIPASE [2]: 9 u/L
- PHOSPHORUS [2]: 11.87 mg/dL
- POTASSIUM [2]: 6.57 MEQ/L
- SODIUM [2]: 143.62 MEQ/L
- TOTAL BILIRUBIN [2]: 0.2 mg/dL
- TOTAL PROTEIN [2]: 6.08 G/DL
- URIC ACID [2]: 1.45 mg/dL
- ABSOLUTE BASOPHIL [3]: 0 CELLS/uL
- ABSOLUTE EOSINOPHIL [3]: 75.33 CELLS/uL
- ABSOLUTE LYMPHOCYTE [3]: 11859.67 CELLS/uL
- ABSOLUTE MONOCYTE [3]: 186.67 CELLS/uL
- ABSOLUTE SEGMENTED NEUTROPHIL [3]: 911.67 CELLS/uL
- BASOPHIL [3]: 0%
- EOSINOPHIL [3]: 0.67%
- ERYTHROCYTE COUNT [3]: 5.43 x10E6/uL
- HEMATOCRIT [3]: 34.07%
- HEMOGLOBIN [3]: 13.33 G/DL
- LEUKOCYTE COUNT [3]: 13.03 x10E3/uL
- LYMPHOCYTE [3]: 91%
- MEAN CORPUSCULAR HEMOGLOBIN [3]: 24.57 pg
- MEAN CORPUSCULAR HEMOGLOBIN CONCENTRATION [3]: 39.2 G/DL
- MEAN CORPUSCULAR VOLUME [3]: 62.73 fL
- MONOCYTE [3]: 1.33%
- NEUTROPHIL [3]: 7%
- NUCLEATED RED BLOOD CELLS [3]: 0 /100WBC
- PLATELET COUNT [3]: 1354.67 x10E3/uL
- ALANINE AMINOTRANSFERASE [3]: 43.33 u/L
- ALBUMIN [3]: 4.2 G/DL
- ALKALINE PHOSPHATASE [3]: 360.33 u/L
- ASPARTATE AMINOTRANSFERASE [3]: 88.67 u/L
- BLOOD UREA NITROGEN [3]: 18.33 mg/dL
- CARBON DIOXIDE [3]: 26.33 mmol/L
- CHLORIDE [3]: 100.67 MEQ/L
- CHOLESTEROL [3]: 65 mg/dL
- CREATINE PHOSPHOKINASE [3]: 452 u/L
- CREATININE [3]: 0.23 mg/dL
- GLUCOSE [3]: 148.33 mg/dL
- LACTATE DEHYDROGENASE [3]: 641.33 u/L
- LIPASE [3]: 10.33 u/L
- PHOSPHORUS [3]: 11.33 mg/dL
- POTASSIUM [3]: 6.45 MEQ/L
- SODIUM [3]: 141.2 MEQ/L
- TOTAL BILIRUBIN [3]: 0.23 mg/dL
- TOTAL PROTEIN [3]: 5.9 G/DL
- URIC ACID [3]: 1.6 mg/dL
